Some test systems named below: CAKI-1; CCRF-CEM; COLO 205; DU-145; EKVX; HCT-116; HCT-15; HT-29; IGROV-1; M14; MCF7; MOLT-4; Malme-3M; NCI-H23; NCI-H522; NCI/ADR-RES; OVCAR-3; PC-3; SN12C; T47D.
Assay in all cases: NCI anticancer screen, dose series, 48 h

The record followed here is ChEMBL document CHEMBL1201862, “PubChem BioAssay data set” (2004).

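Step 1: Grow cells in 96-well plates. Step 2: Expose to compound for 48 hours at 5 concentrations. Step 3: Interpolate endpoints linearly; if unreached, use highest concentration. The concentration for 50% growth inhibition is given as GI50.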 Active and inactive are the calls of the source. Rule as the data show it: active = GI50 up to about 1.1 µM and inactive = higher. Some results are limits rather than exact numbers.

Consider `CCC1C(c2cc(OC)c(OC)c(OC)c2)c2cc3c(cc2OC1N1CCCC1)OCO3` (stereo not given), for which the GI50 in the experiment on CAKI-1 is 0.598 µM (active); with CCRF-CEM it was 1.16 µM (inactive); in the experiment with COLO 205 it was 1.55 µM (inactive); in the experiment on DU-145, 2.37 µM (inactive); in the experiment on EKVX, 7.28 µM (inactive); in the experiment with HCT-116 it was 1.32 µM (inactive). The GI50 with HCT-15 is 0.984 µM; in the experiment on HT-29, 1.37 µM (inactive); in the experiment with IGROV-1 it was 2.62 µM (inactive); in the experiment with M14 it was 1.75 µM (inactive); with MCF7, 0.542 µM (active); in the experiment with MOLT-4 it was 1.95 µM (inactive). Besides, the GI50 in the experiment with Malme-3M is 6.98 µM (inactive); in the experiment with NCI-H23, 4.46 µM (inactive); in the experiment on NCI-H522, 2.29 µM (inactive); in the experiment with NCI/ADR-RES, 1.41 µM (inactive); in the experiment with OVCAR-3, 1.45 µM (inactive); with PC-3, 1.48 µM (inactive). Moreover, the results for the GI50 in the experiment with SN12C and with T47D were 4.36 µM (inactive) and 3.78 µM (inactive), respectively.
As to `CS/C(C#N)=C(\C#N)SC`, the GI50 with CAKI-1 is 6.04 µM (inactive); with CCRF-CEM it was 5.6 µM (inactive); in the experiment on COLO 205, 3.06 µM (inactive); in the experiment with DU-145 it was 13.6 µM (inactive); in the experiment with EKVX, 19 µM (inactive); in the experiment on HCT-116, 20.9 µM (inactive). Moreover, the GI50 in the experiment on HCT-15 is 2.23 µM; in the experiment on HT-29, 16.1 µM (inactive); in the experiment on IGROV-1 it was 6.25 µM (inactive); in the experiment on M14, 2.48 µM (inactive); in the experiment with MCF7, 2.22 µM (inactive); with MOLT-4, 0.233 µM (active). The GI50 was 11.4 µM (inactive) in the experiment on Malme-3M; 5.61 µM (inactive) in the experiment with NCI-H23; 1.42 µM (inactive) in the experiment on NCI-H522; 18.8 µM (inactive) in the experiment on NCI/ADR-RES; 1.77 µM (inactive) with OVCAR-3; 15.2 µM (inactive) with PC-3. In addition, the GI50 in the experiment on SN12C was 11.2 µM (inactive); with T47D, 4.19 µM (inactive).
As to `CCOC(=O)C1=C(C)NC(=O)NC1c1coc2cc(C)cc(C)c2c1=O` (stereo not given), the GI50 in the experiment with CAKI-1 is > 100 µM (inactive); with CCRF-CEM, 37.7 µM (inactive); in the experiment with COLO 205, 54.6 µM (inactive); in the experiment with DU-145 it was > 100 µM (inactive); with EKVX, 31.6 µM (inactive); with HCT-116, 36.9 µM (inactive). The GI50 in the experiment with HCT-15 was 25 µM; in the experiment with HT-29, 32.1 µM (inactive); with IGROV-1, > 60.1 µM (inactive); with M14 it was 34.7 µM (inactive); with MCF7, 36.2 µM (inactive); in the experiment on MOLT-4, 27.5 µM (inactive). Also, the GI50 is 13 µM (inactive) in the experiment with Malme-3M; > 86.7 µM (inactive) with NCI-H23; 1.68 µM (inactive) with NCI-H522; 27.5 µM (inactive) with NCI/ADR-RES; 24.5 µM (inactive) in the experiment with OVCAR-3; 48.3 µM (inactive) in the experiment with PC-3. Moreover, the GI50 is 58.2 µM (inactive) in the experiment on SN12C and > 69.5 µM (inactive) with T47D.
Consider `O=[N+]([O-])c1ccc(/C(=N/c2ccccc2)SS/C(=N\c2ccccc2)c2ccc([N+](=O)[O-])o2)o1`, for which the GI50 in the experiment with CAKI-1 was 1.97 µM (inactive); in the experiment on CCRF-CEM, 2.03 µM (inactive); with COLO 205 it was 1.51 µM (inactive); with DU-145, 1.69 µM (inactive); in the experiment with EKVX it was 1.77 µM (inactive); with HCT-116, 1.5 µM (inactive). In addition, the GI50 in the experiment on HCT-15 is 0.552 µM; in the experiment with HT-29, 1.35 µM (inactive); in the experiment on IGROV-1, 1.6 µM (inactive); in the experiment on M14 it was 1.98 µM (inactive); with MCF7, 0.444 µM (active); with MOLT-4, 2.51 µM (inactive). In addition, the GI50 with Malme-3M was 2.31 µM (inactive); in the experiment with NCI-H23, 1.6 µM (inactive); with NCI-H522, 0.243 µM (active); in the experiment with NCI/ADR-RES, 1.86 µM (inactive); with OVCAR-3, 1.53 µM (inactive); in the experiment with PC-3, 1.7 µM (inactive). Moreover, the GI50 in the experiment on SN12C is 1.94 µM (inactive); in the experiment with T47D it was 2.2 µM (inactive).
Turning to `Nc1ccc(CCN2CCN(CCCc3ccccc3)CC2)cc1`, the GI50 was > 100 µM (inactive) in the experiment on CAKI-1; 48.2 µM (inactive) in the experiment with CCRF-CEM; 27.7 µM (inactive) with COLO 205; 70.3 µM (inactive) with DU-145; > 100 µM (inactive) with EKVX; 31.9 µM (inactive) with HCT-116. The GI50 is 21.7 µM with HCT-15; 16.2 µM (inactive) with HT-29; 98.6 µM (inactive) with IGROV-1; 39.4 µM (inactive) with M14; 28.6 µM (inactive) in the experiment on MCF7; 50.4 µM (inactive) with MOLT-4. Moreover, the GI50 in the experiment with Malme-3M was 38.5 µM (inactive); in the experiment with NCI-H23, 79.4 µM (inactive); in the experiment with NCI-H522 it was 39.2 µM (inactive); in the experiment with NCI/ADR-RES, 86.9 µM (inactive); in the experiment on OVCAR-3 it was 48.1 µM (inactive); with PC-3, > 100 µM (inactive). The GI50 in the experiment on SN12C is > 100 µM (inactive); in the experiment with T47D, 14.7 µM (inactive).
With `Cc1ccc(S(=O)(=O)N/N=C/C(Br)=C(/Br)C(=O)O)cc1`, the GI50 with CAKI-1 is 5.64 µM (inactive); in the experiment with CCRF-CEM, 1.42 µM (inactive); in the experiment on COLO 205 it was 3.44 µM (inactive); in the experiment on DU-145 it was 12.2 µM (inactive); in the experiment with EKVX, 10.2 µM (inactive); with HCT-116 it was 1.91 µM (inactive). Besides, the GI50 is 2.19 µM in the experiment on HCT-15; 5.16 µM (inactive) in the experiment on HT-29; 16.1 µM (inactive) in the experiment on IGROV-1; 4.53 µM (inactive) with M14; 7.41 µM (inactive) in the experiment on MCF7; 0.826 µM (active) in the experiment on MOLT-4. Also, the GI50 is 4.39 µM (inactive) in the experiment with Malme-3M; 6.1 µM (inactive) with NCI-H23; 1.99 µM (inactive) in the experiment on NCI-H522; 3.69 µM (inactive) in the experiment on NCI/ADR-RES; 6.97 µM (inactive) in the experiment on OVCAR-3; 8.89 µM (inactive) with PC-3. Further, the figures for the GI50 with SN12C and in the experiment on T47D were 9.93 µM (inactive) and 4.57 µM (inactive), respectively.
Turning to `COc1ccc(C2NC(=O)Nc3c2c(=O)oc2c3ccc3ccccc32)cc1` (stereo not given), the GI50 was 52.8 µM (inactive) in the experiment with CAKI-1; 37 µM (inactive) with CCRF-CEM; > 100 µM (inactive) in the experiment with COLO 205; > 100 µM (inactive) with DU-145; 23.7 µM (inactive) in the experiment on EKVX; 75.9 µM (inactive) in the experiment with HCT-116. In addition, the GI50 in the experiment with HCT-15 was 46.1 µM; in the experiment with HT-29 it was 77.6 µM (inactive); with IGROV-1, 50.4 µM (inactive); with M14, 37.6 µM (inactive); in the experiment on MCF7 it was 66.2 µM (inactive); in the experiment with MOLT-4 it was 62.8 µM (inactive). The GI50 was 68.9 µM (inactive) with Malme-3M; 52.6 µM (inactive) in the experiment with NCI-H23; 53.2 µM (inactive) in the experiment on NCI-H522; 69.5 µM (inactive) in the experiment on NCI/ADR-RES; 92.9 µM (inactive) in the experiment on OVCAR-3; 38.2 µM (inactive) in the experiment on PC-3. For the same compound, the GI50 was 68.7 µM (inactive) in the experiment on SN12C and 31.1 µM (inactive) in the experiment on T47D.
As to `COc1ccc(-c2cc(-c3ccc(Nc4ccnc5cc(Cl)ccc45)cc3)[nH]c(=O)c2C#N)c2ccccc12`, the GI50 was 9.46 µM (inactive) in the experiment with CAKI-1; 1.09 µM (active) with CCRF-CEM; 2.44 µM (inactive) in the experiment with COLO 205; 5.33 µM (inactive) in the experiment with DU-145; > 77.1 µM (inactive) in the experiment with EKVX; 2.16 µM (inactive) with HCT-116. For the same compound, the GI50 was 8.45 µM in the experiment on HCT-15; 2 µM (inactive) in the experiment on HT-29; 5.26 µM (inactive) in the experiment on IGROV-1; 2.03 µM (inactive) in the experiment with M14; 1.92 µM (inactive) in the experiment with MCF7; 2.13 µM (inactive) in the experiment with MOLT-4. Besides, the GI50 with Malme-3M was 2.23 µM (inactive); with NCI-H23 it was 20.3 µM (inactive); in the experiment with NCI-H522 it was 1.79 µM (inactive); in the experiment on NCI/ADR-RES it was > 100 µM (inactive); in the experiment with OVCAR-3, 2.18 µM (inactive); in the experiment on PC-3, 19.5 µM (inactive). The GI50 was 11.4 µM (inactive) in the experiment with SN12C and 1.88 µM (inactive) with T47D.
For the compound `C#CCN1CCN(C(=S)N/N=C(\C)c2ccccn2)CC1`, the GI50 in the experiment on CAKI-1 is 1.42 µM (inactive); with CCRF-CEM, 0.01 µM (active); in the experiment on COLO 205, 0.01 µM (active); with DU-145, 1.48 µM (inactive); in the experiment on EKVX it was 0.0792 µM (active); in the experiment with HCT-116, 0.001 µM (active). The GI50 in the experiment on HCT-15 is 0.01 µM; with HT-29 it was 0.115 µM (active); with IGROV-1, 0.01 µM (active); with M14 it was 0.0263 µM (active); in the experiment with MCF7, 0.01 µM (active); in the experiment with MOLT-4 it was 0.01 µM (active). For the same compound, the GI50 in the experiment on Malme-3M was 1 µM (active); with NCI-H23, 0.01 µM (active); with NCI-H522, 0.0552 µM (active); with NCI/ADR-RES it was 0.01 µM (active); in the experiment with OVCAR-3, < 0.057 µM (active); in the experiment with PC-3 it was 0.00975 µM (active). In addition, the GI50 in the experiment on SN12C is 0.232 µM (active); in the experiment with T47D, 0.0016 µM (active).
Turning to `Cc1cccc(NC(=O)c2cccc([N+](=O)[O-])c2O)c1C`, the GI50 in the experiment on CAKI-1 is 27.4 µM (inactive); in the experiment on CCRF-CEM, 14.9 µM (inactive); with COLO 205, 18.1 µM (inactive); in the experiment on DU-145, 37.3 µM (inactive); with EKVX it was 26.7 µM (inactive); in the experiment with HCT-116, 28.2 µM (inactive). Also, the GI50 in the experiment on HCT-15 was 31.4 µM; in the experiment with HT-29, 27.7 µM (inactive); with IGROV-1, 26.7 µM (inactive); in the experiment on M14 it was 41.5 µM (inactive); in the experiment on MCF7, 27.4 µM (inactive); in the experiment with MOLT-4 it was 19.4 µM (inactive). For the same compound, the GI50 in the experiment with Malme-3M was 33.8 µM (inactive); with NCI-H23, 17.5 µM (inactive); in the experiment on NCI-H522, 16.8 µM (inactive); in the experiment on NCI/ADR-RES, 16.5 µM (inactive); with OVCAR-3 it was 18.1 µM (inactive); with PC-3, 20.2 µM (inactive). For the same compound, the values for the GI50 in the experiment with SN12C and in the experiment with T47D were 27.4 µM (inactive) and 24.9 µM (inactive), respectively.
